# Literature values in patent publication US20020064834A1, “Microbiological production method for alpha-L-aspartyl-L-phenylalanine” (priority 1999, published 2002).
# Residues, ends and D or L forms follow the SMILES beside them.
# Settings: relative to sucrose
smiles,measurement,value
"COC(=O)[C@H](Cc1ccccc1)NC(=O)[C@@H](N)CC(=O)O [APM, α-L-aspartyl-L-phenylalanine methyl ester] (H-Asp-Phe-OMe)",sweetness as potent as the sweetness of sucrose,about 200 ×
